{"source": "patent US20080200531A1", "about": "“CDKI pathway inhibitors as inhibitors of tumor cell growth” (priority 2006, published 2008)", "key": {"CDK3/cyclinE (h)": {"target": "T1, CDK3/cyclinE (h) (Homo sapiens, UniProt Q00526)", "T1 construct": "purchased Upstate Biotechnology, Inc", "T1 sequence (Q00526 whole entry)": "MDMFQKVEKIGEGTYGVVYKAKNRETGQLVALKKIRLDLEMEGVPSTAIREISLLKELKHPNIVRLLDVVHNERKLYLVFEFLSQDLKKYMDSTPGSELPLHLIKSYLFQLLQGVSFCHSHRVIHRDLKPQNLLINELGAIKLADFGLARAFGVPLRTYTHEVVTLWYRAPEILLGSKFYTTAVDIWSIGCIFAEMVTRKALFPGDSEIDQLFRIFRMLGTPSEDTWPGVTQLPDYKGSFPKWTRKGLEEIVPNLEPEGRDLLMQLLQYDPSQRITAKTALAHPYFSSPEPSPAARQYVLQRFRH", "T1 sequence (P24864 whole entry partner)": "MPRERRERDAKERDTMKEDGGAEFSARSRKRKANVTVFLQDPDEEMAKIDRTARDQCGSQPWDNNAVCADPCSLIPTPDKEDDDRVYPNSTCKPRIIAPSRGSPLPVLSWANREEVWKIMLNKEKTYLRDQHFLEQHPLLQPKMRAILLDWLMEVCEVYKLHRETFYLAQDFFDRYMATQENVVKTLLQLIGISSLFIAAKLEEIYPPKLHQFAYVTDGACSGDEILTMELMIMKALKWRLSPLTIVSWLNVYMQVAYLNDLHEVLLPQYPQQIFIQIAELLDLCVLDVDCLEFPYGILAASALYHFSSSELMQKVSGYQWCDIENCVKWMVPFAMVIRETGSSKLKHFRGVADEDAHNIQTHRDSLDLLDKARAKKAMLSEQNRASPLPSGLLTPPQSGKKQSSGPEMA", "experiment": "Cyclin/CDK kinase assay (Upstate), CDK3/cyclinE", "assay_type": "biochemical", "settings": "100 μM, re-tested at 20 and 40 μM (SNX9, SNX2) or 10 and 20 μM (SNX9-1, SNX14)", "experimental": "(§1) To test the above hypothesis, we determined whether several CDKI pathway inhibitors, including two SNX9 class compounds (SNX9 and SNX9-1), two compounds of a different structural class (SNX14 and SNX2) and another unrelated inhibitor (SNX35), inhibit the kinase activity of different complexes formed in vitro by purified cyclin/CDK complexes. This analysis was carried out as a service by Upstate Biotechnology, Inc.\n(§2) In a final reaction volume of 25 μl, CDK3/cyclinE (h) (5-10 mU) is incubated with 8 mM MOPS pH 7.0, 0.2 mM EDTA, 0.1 mg/ml H1, 10 mM MgAcetate and [γ-33P-ATP] (specific activity approx. 500 cpm/pmol, 200 μM concentration). The reaction is initiated by the addition of the MgATP mix. After incubation for 40 minutes at room temperature, the reaction is stopped by the addition of 5 μl of a 3% phosphoric acid solution. 10 μl of the reaction is then spotted onto a P30 filtermat and washed three times for 5 minutes in 75 mM phosphoric acid and once in methanol prior to drying and scintillation counting.\nAt the first step, all the compounds were tested at 100 μM concentration. […] For SNX14 and SNX2, the relative efficacy of inhibition was CDK1>CDK2˜CDK3>CDK6. For SNX9 and SNX9-1, the order was CDK3>CDK1>CDK2>CDK6 (FIG. 12)."}, "[1]": {"test_system": "isogenic human fibroblast cell lines (untransformed, partially transformed, fully transformed)", "experiment": "Dose-dependent growth inhibition of three isogenic human fibroblast cell lines with increasing neoplastic transformation", "assay_type": "cell-based", "settings": "3-day assay, Hoechst 33342", "source_text": "To determine if tumor-specific growth inhibitory activity of SNX9 class compounds could be due to the inhibition of a specific CDK, we took advantage of the availability of selective inhibitors for some of the CDK proteins. Among these enzymes, CDK1, CDK2 and CDK4/CDK6 (the latter two CDKs are closely related to each other and interact with the same class of cyclins), have been used as targets for developing specific inhibitors, with potential anticancer activity. In contrast, CDK3 has not been used as a target for developing selective inhibitors. We have obtained commercially available selective inhibitors of CDK1 (CGP74514A) (Calbiochem Cat. No. 217696), CDK2 (CVT-313) (Calbiochem Cat. No. 238803), and CDK4 (NSC 625987) (Calbiochem Cat. No. 219477), and tested them, along with a broad-specificity CDK inhibitor flavopiridol, and with SNX14, SNX9 and SNX9-1, for growth inhibition of normal and transformed fibroblasts.\nThis analysis was done using a set of three isogenic human fibroblast cell lines with increasing degrees of neoplastic transformation (immortal but untransformed, partially transformed, and fully transformed)."}, "[2]": {"target": "CDK2/cyclinA (h), CDK2/cyclinE (h)", "experiment": "Cyclin/CDK kinase assay (Upstate), CDK2/cyclinA and CDK2/cyclinE", "assay_type": "biochemical, human", "settings": "100 μM, re-tested at 20 and 40 μM (SNX9, SNX2) or 10 and 20 μM (SNX9-1, SNX14)", "experimental": "as §1\nas §2, with “CDK2/cyclinA” for “CDK3/cyclinE”, “mg/ml histone” for “mg/ml”, “45” for “200”\nIn a final reaction volume of 25 μl, CDK2/cyclinE (h) (5-10 mU) is incubated with 8 mM MOPS pH 7.0, 0.2 mM EDTA, 0.1 mg/ml histone H1, 10 mM MgAcetate and [γ-33P-ATP] (specific activity approx. 500 cpm/pmol, 120 μM concentration). The reaction is initiated by the addition of the MgATP mix. […]"}, "[3]": {"test_system": "WI-38 and BJ-EN fibroblasts vs HT1080, HCT116, C33-A, Calu-6", "experiment": "3-day growth inhibition assay (Hoechst 33342), normal fibroblasts vs tumor cell lines", "settings": "3-day assay, WI-38, BJ-EN vs HT1080, HCT116, C33-A", "description": "(§3) The assays were carried out in 96-well plates, in triplicates; the plated cell numbers for each cell line were determined in preliminary experiments to assure exponential growth over the 3-day period of the assay. The cell numbers were measured by staining DNA of attached cells with Hoechst 33342, and the results for each dose were expressed as the decrease in cell number relative to untreated cells. For some of the tumor/normal cell line combinations, the assays were repeated using CellTiter-Glo viability assay (Promega), with the same results."}, "HCT116 colon carcinoma": {"test_system": "HCT116 colon carcinoma", "experiment": "3-day growth inhibition assay (Hoechst 33342), HCT116", "assay_type": "cell-based", "settings": "Homo sapiens, HCT-116, 72 h, 3 days, read-out: growth inhibition (decrease in cell number relative to untreated cells)", "description": "as §3"}, "[4]": {"test_system": "normal fibroblasts (WI-38, BJ-EN)", "experiment": "3-day growth inhibition assay (Hoechst 33342), normal cells", "assay_type": "cell-based, human", "settings": "5 μM; 3 days", "description": "as §3"}, "HT1080 fibrosarcoma": {"test_system": "HT1080 fibrosarcoma", "experiment": "3-day growth inhibition assay (Hoechst 33342), HT1080", "assay_type": "cell-based", "settings": "Homo sapiens, HT-1080, 72 h, 3 days, read-out: growth inhibition (decrease in cell number relative to untreated cells)", "description": "as §3"}}}
{"smiles": "NCCc1c[nH]c2c(Cl)cc(Cl)cc12", "note": "[SNX9-1]", "values": [{"measurement": "kinase activity of CDK3", "setting": "CDK3/cyclinE (h)", "result": "inhibited the kinase activities"}, {"measurement": "selectivity of growth inhibition for transformed cell lines relative to immortal but untransformed fibroblasts", "setting": "[1]", "result": "pronounced selectivity for partially transformed or fully transformed cell lines"}, {"measurement": "kinase activity of CDK2", "setting": "[2]", "result": "inhibited the kinase activities"}, {"measurement": "tumor selectivity of growth inhibition, tumor cells vs normal fibroblasts", "setting": "[3]", "result": "inhibited all the tumor cells to a greater extent than normal fibroblasts"}]}
{"smiles": "Cc1[nH]c2c(Cl)cccc2c1CCN", "note": "[SNX9]", "values": [{"measurement": "kinase activity of CDK3", "setting": "CDK3/cyclinE (h)", "result": "inhibited the kinase activities"}, {"measurement": "inhibition at 5 µM", "setting": "HCT116 colon carcinoma", "result": "~100", "unit": "%"}, {"measurement": "growth inhibition of normal cells", "setting": "[4]", "result": "no effect on normal cells"}, {"measurement": "inhibition at 5 µM", "setting": "HT1080 fibrosarcoma", "result": "~100", "unit": "%"}, {"measurement": "selectivity of growth inhibition for transformed cell lines relative to immortal but untransformed fibroblasts", "setting": "[1]", "result": "pronounced selectivity for partially transformed or fully transformed cell lines"}, {"measurement": "kinase activity of CDK2", "setting": "[2]", "result": "inhibited the kinase activities"}, {"measurement": "tumor selectivity of growth inhibition, tumor cells vs normal fibroblasts", "setting": "[3]", "result": "inhibited all the tumor cells to a greater extent than normal fibroblasts"}]}
